Test results as given in PubChem BioAssay (NCI).
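How tested: cells in 96-well plates exposed to compound for 48 hours at five concentrations. TGI: total growth inhibition.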 Where a SMILES comes first, the peptide text is derived from it. The star is where a group is joined. Boc = CC(C)(C)OC(=O)*; OBn = c1ccc(CO*)cc1

What was measured:
Test in all cases: inhibition of tumour cell growth, NCI panel, 48 h
ACHN renal = system: ACHN renal
HCT-116 colon = system: HCT-116 colon
HCT-15 colon = system: HCT-15 colon
HL-60(TB) leukemia = system: HL-60(TB) leukemia
HOP-62 NSCLC = system: HOP-62 NSCLC
M14 melanoma = system: M14 melanoma
MDA-N = system: MDA-N
NCI-H226 lung = system: NCI-H226 lung
NCI-H460 lung = system: NCI-H460 lung
NCI/ADR-RES ovarian = system: NCI/ADR-RES ovarian
OVCAR-3 ovarian = system: OVCAR-3 ovarian
SK-MEL-2 melanoma = system: SK-MEL-2 melanoma
SK-MEL-28 melanoma = system: SK-MEL-28 melanoma
SK-MEL-5 melanoma = system: SK-MEL-5 melanoma
SN12C renal = system: SN12C renal
SNB-75 CNS = system: SNB-75 CNS
SW-620 colon = system: SW-620 colon
U251 CNS = system: U251 CNS
UACC-257 melanoma = system: UACC-257 melanoma
OVCAR-4 ovarian = system: OVCAR-4 ovarian

Compound	TGI (ACHN renal) [µM]	TGI (HCT-116 colon) [µM]	TGI (HCT-15 colon) [µM]	TGI (HL-60(TB) leukemia) [µM]	TGI (HOP-62 NSCLC) [µM]	TGI (M14 melanoma) [µM]	TGI (MDA-N) [µM]	TGI (NCI-H226 lung) [µM]	TGI (NCI-H460 lung) [µM]	TGI (NCI/ADR-RES ovarian) [µM]	TGI (OVCAR-3 ovarian) [µM]	TGI (SK-MEL-2 melanoma) [µM]	TGI (SK-MEL-28 melanoma) [µM]	TGI (SK-MEL-5 melanoma) [µM]	TGI (SN12C renal) [µM]	TGI (SNB-75 CNS) [µM]	TGI (SW-620 colon) [µM]	TGI (U251 CNS) [µM]	TGI (UACC-257 melanoma) [µM]	TGI (OVCAR-4 ovarian) [µM]
O=c1[nH]c(=O)n2n1C1C=CC2CC1	> 100	> 100	> 100	> 100	> 100	> 100	> 100	> 100	> 100	> 100	> 100	> 100	> 100	> 100	> 100	> 100	> 100	> 100	> 100	–
O=C(CCc1ccc(O)cc1)NCCCNC(=O)CCc1ccc(O)cc1	> 100	> 100	> 100	–	> 100	> 100	> 100	> 100	> 100	> 100	> 100	> 100	> 100	> 100	> 100	> 100	> 100	> 100	> 100	> 100
Nc1[nH]c(=S)c2c(N)n[nH]c2c1C(=O)Nc1ccc(Cl)cc1	–	> 100	> 100	> 100	–	> 100	> 100	> 100	> 100	> 100	> 100	> 100	> 100	> 100	> 100	> 100	> 100	> 100	> 100	> 100
Cc1nnc([C@@]2(C)CC[C@H]3[C@@H](CCC4=CC(=O)CC[C@@]43C)[C@@H]2CC#N)o1	> 100	> 100	> 100	> 100	> 100	> 100	> 100	> 100	–	> 100	> 100	> 100	–	> 100	> 100	> 100	> 100	> 100	> 100	> 100
CCOC(=O)c1cn2c(ccc3sc4ccccc4c(=O)c32)n1	> 100	> 100	> 100	> 100	> 100	–	> 100	> 100	> 100	> 100	> 100	–	> 100	> 100	> 100	> 100	> 100	> 100	> 100	–
Nc1ccc(OCCCc2c(-c3ccccc3)nc(N)[nH]c2=O)cc1	> 100	> 100	> 100	> 100	> 100	> 100	> 100	> 100	> 100	> 100	> 100	–	> 100	> 100	> 100	> 100	> 100	> 100	> 100	> 100
CC(C)N(/C(F)=N\C(=O)Nc1ccccc1C(F)(F)F)C(C)C	> 100	> 100	> 100	> 100	> 100	> 100	> 100	> 100	> 100	> 100	> 100	78.5	> 100	> 100	> 100	> 100	> 100	> 100	> 100	–
O=S(=O)(/N=C(\NO)Nc1ccc(Cl)cc1)C1CC=C(c2ccon2)S1 (stereo not given)	> 100	> 100	> 100	35.6	> 100	> 100	> 100	> 79.8	> 65.8	> 100	> 100	55.1	> 100	> 62.1	98.9	–	> 100	> 100	> 100	> 100
CC(=O)OC(=C(C#N)C#N)c1nccnc1C(C)=O	> 20	–	> 20	> 20	–	11.8	17.3	13.7	> 20	> 20	> 20	> 20	> 20	> 20	> 20	18.6	> 20	> 20	> 20	> 20
O=P1(Oc2ccccc2)NCc2ncccc2O1 (stereo not given)	> 100	> 100	> 100	–	> 100	> 100	> 100	> 100	> 100	> 100	> 100	> 100	> 100	> 100	> 100	> 100	> 100	> 100	> 100	> 100
CCCCN1C(=O)CS/C1=N/Nc1nc2c([nH]1)c(=O)n(C)c(=O)n2C	> 100	29.3	> 100	> 100	> 100	> 100	36.6	> 100	> 100	> 100	> 100	> 100	> 100	> 100	> 100	–	–	> 100	> 100	71.4
C/C(=C1\C(=O)C(c2ccccc2)N(c2ccccc2)C1=O)c1ccc(Cl)cc1 (stereo not given)	45	36.3	43.6	69.1	84.5	42.3	48	43	> 100	> 100	30.6	45.4	31.2	28.3	86	–	72.3	29.4	30.8	42.8
CC(=O)OC1OC(c2ccoc2)C[C@@]12C1CCC3O[C@]3(C)[C@]1(C)C[C@H](OC(C)=O)[C@H]2C (stereo not given in full)	> 75	> 75	> 75	> 75	–	> 75	> 75	> 75	> 75	> 75	> 75	> 75	> 75	> 75	> 75	> 75	> 75	> 75	> 75	> 75
CC(=O)N(C(C)=O)n1nc2c(n1)C(=O)c1ccccc1C2=O	> 100	> 100	> 100	> 100	> 100	> 100	> 100	–	> 100	> 100	> 100	> 100	> 100	> 100	> 100	–	> 100	> 100	> 100	> 100
CC(C)CC(NC(=O)C(Cc1ccccc1)NC(=O)C(Cc1ccccc1)NC(=O)OC(C)(C)C)C(=O)OCc1ccccc1 (stereo not drawn) (Boc-Phe-Phe-Leu-OBn; configuration not given here)	–	> 100	> 100	> 100	> 100	> 100	> 100	> 100	–	> 100	> 100	> 100	> 100	> 100	> 100	> 100	> 100	> 100	> 100	–
S=C(c1c[nH]c2ccccc12)N1CCCCC1	> 100	> 100	> 100	> 100	> 100	> 100	> 100	> 100	> 100	> 100	> 100	> 100	> 100	> 100	> 100	–	> 100	> 100	> 100	–
O=C1Nc2ccccc2/C1=C\c1c(Cl)nc2n1CCS2	> 100	68	64.5	48.8	> 100	> 100	43.6	–	45.3	67.5	68.7	32.5	> 100	29.4	> 100	56.8	> 100	75.6	30.6	> 100
O=C1CCCC[C@H]1C(O)CC1CC(=O)N(c2ccccc2)C(=O)C1 (stereo not given in full)	> 100	> 100	> 100	> 100	> 100	> 100	> 100	> 100	> 100	> 100	> 100	–	> 100	> 100	> 100	> 100	> 100	> 100	> 100	> 100
Cc1ccc(NC(=O)/C(=N\NC(N)=O)c2c(O)c3ccccc3[nH]c2=O)cc1	> 100	> 100	> 100	> 100	–	> 100	> 100	> 100	> 100	> 100	> 100	> 100	> 100	> 100	> 100	> 100	> 100	> 100	> 100	> 100
CS/C=C\C(=O)O[C@H]1C[C@@H]2[C@@H](O)c3occ(C)c3C[C@]2(C)[C@@H](C)C1	63.2	31.4	95.1	43.8	40.9	38.5	47.2	28.7	60.7	42.3	31	–	35.9	28.2	30.2	–	> 100	7.93	30.5	51.6
COC(=O)C1=COc2c(n(C)c3ccccc23)-c2ccccc21	> 100	> 100	> 100	> 100	> 100	> 100	> 100	> 100	> 100	> 100	> 100	> 100	–	> 100	> 100	> 100	> 100	> 100	> 100	–
N#CCCN(CCC#N)c1ccc(C(N=Nc2ccc(Cl)cc2)=Nc2ccc(Cl)cc2)cc1	34	36.5	23.7	–	50.8	58.7	40.8	36.7	29.2	38	36.9	25	> 100	24.7	33.5	45.6	34.3	33.2	29.7	81.2
Brc1ccc(-c2cc(-c3ccc4c(c3)OCO4)c(-c3cccs3)n2Cc2ccccc2)cc1	> 100	> 100	> 100	> 100	> 100	> 100	> 100	–	> 100	> 100	–	> 100	> 100	> 100	> 100	> 100	> 100	> 100	> 100	> 100
O=c1c2c3c(sc2nc2n1N=C(c1ccc([N+](=O)[O-])cc1)CS2)CCCC3	> 100	> 100	> 100	> 100	> 100	–	> 100	> 100	> 100	> 100	> 100	–	> 100	> 100	> 100	> 100	> 100	> 100	> 100	> 100
CCOC(=O)N1N(c2ccccc2)C(=O)C1(c1ccccc1)c1ccccc1	> 100	> 100	> 100	> 100	46	> 100	> 100	> 100	–	> 100	> 100	70.5	> 100	> 100	> 100	–	> 100	> 100	> 100	> 100
